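The concentration for 50% growth inhibition is given as GI50. The concentration for full growth arrest is given as TGI.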
Experiments:
Assay in all cases: NCI tumour cell line growth inhibition, 384-well format
MDA-MB-468 breast = system: MDA-MB-468 breast
OVCAR-3 ovarian = system: OVCAR-3 ovarian
MDA-MB-435 melanoma = system: MDA-MB-435 melanoma
K-562 leukemia = system: K-562 leukemia
MALME-3M melanoma = system: MALME-3M melanoma
NCI-H522 lung = system: NCI-H522 lung
HOP-62 NSCLC = system: HOP-62 NSCLC
PC-3 prostate = system: PC-3 prostate
SK-MEL-5 melanoma = system: SK-MEL-5 melanoma
SNB-75 CNS = system: SNB-75 CNS
DU-145 prostate = system: DU-145 prostate
HS 578T breast = system: HS 578T breast
HCC-2998 colon = system: HCC-2998 colon
CCRF-CEM leukemia = system: CCRF-CEM leukemia
HCT-116 colon = system: HCT-116 colon
MDA-MB-231 breast = system: MDA-MB-231 breast
HCT-15 colon = system: HCT-15 colon
UACC-62 melanoma = system: UACC-62 melanoma
SK-MEL-28 melanoma = system: SK-MEL-28 melanoma
A498 renal = system: A498 renal
HT29 colon = system: HT29 colon
RXF 393 renal = system: RXF 393 renal
A549 NSCLC = system: A549 NSCLC
U251 glioblastoma = system: U251 glioblastoma
SF-539 CNS = system: SF-539 CNS
ACHN renal = system: ACHN renal
KM12 colon = system: KM12 colon
SF-268 CNS = system: SF-268 CNS
OVCAR-8 ovarian = system: OVCAR-8 ovarian
T-47D breast = system: T-47D breast

Work on `O=C(Nc1ccc(O)c(NS(=O)(=O)c2ccc(F)cc2)c1)c1ccc(-c2ccccc2)cc1` yielded a GI50 (MDA-MB-468 breast) of 2.08 µM, a TGI (MDA-MB-468 breast) of 7.66 µM and a GI50 (OVCAR-3 ovarian) of 2.86 µM. It also gave a TGI (OVCAR-3 ovarian) of 10.6 µM, a GI50 (MDA-MB-435 melanoma) of 7.4 µM and a TGI (MDA-MB-435 melanoma) of 20.2 µM. The GI50 (K-562 leukemia) was 3.68 µM, the TGI (K-562 leukemia) was 13.5 µM and the GI50 (MALME-3M melanoma) was 4.06 µM. For the same compound, the TGI (MALME-3M melanoma) was 15.4 µM, the GI50 (NCI-H522 lung) was 2.3 µM and the TGI (NCI-H522 lung) was 6.5 µM. It also gave a GI50 (HOP-62 NSCLC) of 9.69 µM, a TGI (HOP-62 NSCLC) of 21.4 µM and a GI50 (PC-3 prostate) of 3.94 µM. For the same compound, the TGI (PC-3 prostate) was 14.4 µM, the GI50 (SK-MEL-5 melanoma) was 4.13 µM and the TGI (SK-MEL-5 melanoma) was 15.3 µM. For the same compound, the GI50 (SNB-75 CNS) was 9.53 µM, the TGI (SNB-75 CNS) was 21.2 µM and the GI50 (DU-145 prostate) was 10.1 µM. The TGI (DU-145 prostate) was 21.8 µM, the GI50 (HS 578T breast) was 2.93 µM and the TGI (HS 578T breast) was 15.5 µM. The GI50 (HCC-2998 colon) was 4.56 µM, the TGI (HCC-2998 colon) was 10.3 µM and the GI50 (CCRF-CEM leukemia) was 2.24 µM. It also gave a TGI (CCRF-CEM leukemia) of 4.11 µM, a GI50 (HCT-116 colon) of 3.71 µM and a TGI (HCT-116 colon) of 12.7 µM. It also gave a GI50 (MDA-MB-231 breast) of 3.36 µM, a TGI (MDA-MB-231 breast) of 13.5 µM and a GI50 (HCT-15 colon) of 3.84 µM. It also gave a TGI (HCT-15 colon) of 11.8 µM, a GI50 (UACC-62 melanoma) of 4.96 µM and a TGI (UACC-62 melanoma) of 17.6 µM. For the same compound, the GI50 (SK-MEL-28 melanoma) was 11.4 µM, the TGI (SK-MEL-28 melanoma) was 23.8 µM and the GI50 (A498 renal) was 3.57 µM. It also gave a TGI (A498 renal) of 15.1 µM, a GI50 (HT29 colon) of 12 µM and a TGI (HT29 colon) of 24.5 µM. For the same compound, the GI50 (RXF 393 renal) was 1.68 µM, the TGI (RXF 393 renal) was 4.57 µM and the GI50 (A549 NSCLC) was 5.05 µM. It also gave a TGI (A549 NSCLC) of 17 µM, a GI50 (U251 glioblastoma) of 5.41 µM and a TGI (U251 glioblastoma) of 17.1 µM. It also gave a GI50 (SF-539 CNS) of 5.63 µM, a TGI (SF-539 CNS) of 18.4 µM and a GI50 (ACHN renal) of 6.99 µM. The TGI (ACHN renal) was 19.7 µM, the GI50 (KM12 colon) was 5.26 µM and the TGI (KM12 colon) was 18.3 µM. The GI50 (SF-268 CNS) was 4.51 µM, the TGI (SF-268 CNS) was 15.2 µM and the GI50 (OVCAR-8 ovarian) was 3.73 µM. For the same compound, the TGI (OVCAR-8 ovarian) was 14.1 µM and the GI50 (T-47D breast) was 8 µM.
